One may read the IC50 as the concentration needed to halve the response being measured.

A value given as a limit tells only on which side of the number the result lay.

HPK1, sequence (Q92918 1-346 limits assumed): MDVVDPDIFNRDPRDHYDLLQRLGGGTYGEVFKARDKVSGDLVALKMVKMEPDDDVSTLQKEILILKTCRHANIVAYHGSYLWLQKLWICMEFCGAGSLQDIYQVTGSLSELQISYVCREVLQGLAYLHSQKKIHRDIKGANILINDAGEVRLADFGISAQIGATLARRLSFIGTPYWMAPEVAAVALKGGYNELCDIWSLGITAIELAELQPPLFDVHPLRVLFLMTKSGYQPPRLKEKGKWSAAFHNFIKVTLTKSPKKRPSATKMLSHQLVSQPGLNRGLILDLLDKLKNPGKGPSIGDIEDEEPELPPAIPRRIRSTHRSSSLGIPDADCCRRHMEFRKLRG

In the assay the target is HPK1 (Homo sapiens (Human), UniProt Q92918). Kind of assay: HPK1 Inhibition Assay (ADP-Glo kinase assay). It is filed as biochemical. To be noted: ATP 10 μM. Summed up:
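ADP-Glo luminescence read-out after 1 h room-temperature kinase reaction with 10 μM ATP and 0.1 μg/ml MBP. Recombinant human HPK1 at 7.5 ng/μl; buffer 40 mM Tris pH 7.5, 20 mM MgCl2. Compounds serially diluted 5-fold over 10 points from 10 mM DMSO stock.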
Regarding `CC[C@@]1(N)CCN(c2c(NC(=O)c3ccc(=O)n(-c4c(F)cccc4F)n3)ccc3c2nc(C(C)C)n3C)C1` [Example 121, (R)-N-(4-(3-amino-3-ethylpyrrolidin-1-yl)-2-isopropyl-1-methyl-1H-benzo[d]imidazol-5-yl)-1-(2,6-difluorophenyl)-6-oxo-1,6-dihydropyridazine-3-carboxamide], the IC50 was < 100 nM.
Turning to `CC[C@]1(N)CCN(c2c(NC(=O)c3ccc(=O)n(-c4c(F)cccc4F)n3)ccc3c2nc(C(C)C)n3C)C1` [Example 122, (S)-N-(4-(3-amino-3-ethylpyrrolidin-1-yl)-2-isopropyl-1-methyl-1H-benzo[d]imidazol-5-yl)-1-(2,6-difluorophenyl)-6-oxo-1,6-dihydropyridazine-3-carboxamide], the IC50 was < 100 nM.
Take `CC(C)c1nc2c(N3CC[C@@](C)(N)C3)c(NC(=O)c3ccc(=O)n(-c4c(F)cccc4F)n3)ccc2n1C` [Example 123, (R)-N-(4-(3-amino-3-methylpyrrolidin-1-yl)-2-isopropyl-1-methyl-1H-benzo[d]imidazol-5-yl)-1-(2,6-difluorophenyl)-6-oxo-1,6-dihydropyridazine-3-carboxamide]: the IC50 is < 100 nM.
As for `CC(C)c1nc2c(N3CC[C@@H](N(C)C)C3)c(NC(=O)c3ccc(=O)n(-c4c(F)cccc4F)n3)ccc2n1C` [Example 126, (R)-1-(2,6-difluorophenyl)-N-(4-(3-(dimethylamino)pyrrolidin-1-yl)-2-isopropyl-1-methyl-1H-benzo[d]imidazol-5-yl)-6-oxo-1,6-dihydropyridazine-3-carboxamide], the IC50 is < 100 nM.
The result for `CN[C@@H]1CCN(c2c(NC(=O)c3ccc(=O)n(-c4c(F)cccc4F)n3)ccc3c2nc(C(C)C)n3C)C1` [Example 127, (R)-1-(2,6-difluorophenyl)-N-(2-isopropyl-1-methyl-4-(3-(methylamino)pyrrolidin-1-yl)-1H-benzo[d]imidazol-5-yl)-6-oxo-1,6-dihydropyridazine-3-carboxamide] reads < 100 nM.
Take `CC(C)c1nc2c(N3CC[C@@H](NC(=O)CCN)C3)c(NC(=O)c3ccc(=O)n(-c4c(F)cccc4F)n3)ccc2n1C` [Example 128, (R)-N-(4-(3-(3-aminopropanamido)pyrrolidin-1-yl)-2-isopropyl-1-methyl-1H-benzo[d]imidazol-5-yl)-1-(2,6-difluorophenyl)-6-oxo-1,6-dihydropyridazine-3-carboxamide]: the IC50 is < 100 nM.
For the compound `CC(C)c1nc2c(N3CC[C@@H](NCC(C)(C)O)C3)c(NC(=O)c3ccc(=O)n(-c4c(F)cccc4F)n3)ccc2n1C` [Example 129, (R)-1-(2,6-difluorophenyl)-N-(4-(3-((2-hydroxy-2-methylpropyl)amino)pyrrolidin-1-yl)-2-isopropyl-1-methyl-1H-benzo[d]imidazol-5-yl)-6-oxo-1,6-dihydropyridazine-3-carboxamide], the IC50 was < 100 nM.
The result for `CC(C)c1nc2c(N3CC[C@@H](NCCO)C3)c(NC(=O)c3ccc(=O)n(-c4c(F)cccc4F)n3)ccc2n1C` [Example 130, (R)-1-(2,6-difluorophenyl)-N-(4-(3-((2-hydroxyethyl)amino)pyrrolidin-1-yl)-2-isopropyl-1-methyl-1H-benzo[d]imidazol-5-yl)-6-oxo-1,6-dihydropyridazine-3-carboxamide] reads < 100 nM; that for `CC(C)c1nc2c(N3CC[C@@H](NC(=O)CN)C3)c(NC(=O)c3ccc(=O)n(-c4c(F)cccc4F)n3)ccc2n1C` [Example 131, (R)-N-(4-(3-(2-aminoacetamido)pyrrolidin-1-yl)-2-isopropyl-1-methyl-1H-benzo[d]imidazol-5-yl)-1-(2,6-difluorophenyl)-6-oxo-1,6-dihydropyridazine-3-carboxamide], < 100 nM.
To `CC(C)c1nc2c(N3CC[C@H](N)C3)c(NC(=O)c3ccc(=O)n(-c4c(F)cccc4F)n3)ccc2n1C` [Example 132, (S)-N-(4-(3-aminopyrrolidin-1-yl)-2-isopropyl-1-methyl-1H-benzo[d]imidazol-5-yl)-1-(2,6-difluorophenyl)-6-oxo-1,6-dihydropyridazine-3-carboxamide] belongs < 100 nM; to `CC(C)c1nc2c(N3CCC(N)CC3)c(NC(=O)c3ccc(=O)n(-c4c(F)cccc4F)n3)ccc2n1C` [Example 133, N-(4-(4-aminopiperidin-1-yl)-2-isopropyl-1-methyl-1H-benzo[d]imidazol-5-yl)-1-(2,6-difluorophenyl)-6-oxo-1,6-dihydropyridazine-3-carboxamide], < 100 nM; to `CC(C)c1nc2c(N3CCC[C@H]3CN)c(NC(=O)c3ccc(=O)n(-c4c(F)cccc4F)n3)ccc2n1C` [Example 134, (S)-N-(4-(2-(aminomethyl)pyrrolidin-1-yl)-2-isopropyl-1-methyl-1H-benzo[d]imidazol-5-yl)-1-(2,6-difluorophenyl)-6-oxo-1,6-dihydropyridazine-3-carboxamide], < 100 nM.
The result for `CC(C)c1nc2c(N3CCC4(CCNC4)C3)c(NC(=O)c3ccc(=O)n(-c4c(F)cccc4F)n3)ccc2n1C` (stereo not drawn) [Example 136, 1-(2,6-difluorophenyl)-N-(2-isopropyl-1-methyl-4-(2,7-diazaspiro[4.4]nonan-2-yl)-1H-benzo[d]imidazol-5-yl)-6-oxo-1,6-dihydropyridazine-3-carboxamide] reads < 100 nM.
With `CC(C)c1nc2c(N3C[C@H]4CNC[C@H]4C3)c(NC(=O)c3ccc(=O)n(-c4c(F)cccc4F)n3)ccc2n1C` [Example 137, 1-(2,6-difluorophenyl)-N-(4-((3aR,6aS)-hexahydropyrrolo[3,4-c]pyrrol-2(1H)-yl)-2-isopropyl-1-methyl-1H-benzo[d]imidazol-5-yl)-6-oxo-1,6-dihydropyridazine-3-carboxamide], the IC50 was < 100 nM.
`CC(C)c1nc2c(N3CC[C@@](C)(O)C3)c(NC(=O)c3ccc(=O)n(-c4c(F)cccc4F)n3)ccc2n1C` [Example 140, (R)-1-(2,6-difluorophenyl)-N-(4-(3-hydroxy-3-methylpyrrolidin-1-yl)-2-isopropyl-1-methyl-1H-benzo[d]imidazol-5-yl)-6-oxo-1,6-dihydropyridazine-3-carboxamide]: the IC50 is < 100 nM.
To `CC(C)c1nc2c(N3CC(F)(F)C[C@H]3CN)c(NC(=O)c3ccc(=O)n(-c4c(F)cccc4F)n3)ccc2n1C` [Example 141, (S)-N-(4-(2-(aminomethyl)-4,4-difluoropyrrolidin-1-yl)-2-isopropyl-1-methyl-1H-benzo[d]imidazol-5-yl)-1-(2,6-difluorophenyl)-6-oxo-1,6-dihydropyridazine-3-carboxamide] belongs < 100 nM; to `CC(C)c1nc2c(N3CC(N)C(O)C3)c(NC(=O)c3ccc(=O)n(-c4c(F)cccc4F)n3)ccc2n1C` (stereo not drawn) [Example 142, N-(4-(3-amino-4-hydroxypyrrolidin-1-yl)-2-isopropyl-1-methyl-1H-benzo[d]imidazol-5-yl)-1-(2,6-difluorophenyl)-6-oxo-1,6-dihydropyridazine-3-carboxamide], < 100 nM; to `CC(C)c1nc2c(N3CC[C@@H](N)C3)c(NC(=O)c3ccc(=O)n(-c4c(F)cccc4F)n3)cc(F)c2n1C` [Example 143, (R)—N-(4-(3-aminopyrrolidin-1-yl)-7-fluoro-2-isopropyl-1-methyl-1H-benzo[d]imidazol-5-yl)-1-(2,6-difluorophenyl)-6-oxo-1,6-dihydropyridazine-3-carboxamide], < 100 nM.
Consider `CC(C)c1nc2c(N3CC(F)(F)C[C@H]3CN)c(NC(=O)c3ccc(=O)n(-c4c(F)cccc4F)n3)cc(F)c2n1C` [Example 144, (S)-N-(4-(2-(aminomethyl)-4,4-difluoropyrrolidin-1-yl)-7-fluoro-2-isopropyl-1-methyl-1H-benzo[d]imidazol-5-yl)-1-(2,6-difluorophenyl)-6-oxo-1,6-dihydropyridazine-3-carboxamide], for which the IC50 was < 100 nM.
`CC(C)c1nc2c(N3C[C@@H]4[C@H](N)[C@@H]4C3)c(NC(=O)c3ccc(=O)n(-c4c(F)cccc4F)n3)cc(F)c2n1C` [Example 145, N-(4-((1R,5S,6r)-6-amino-3-azabicyclo[3.1.0]hexane-3-yl)-7-fluoro-2-isopropyl-1-methyl-1H-benzo[d]imidazol-5-yl)-1-(2,6-difluorophenyl)-6-oxo-1,6-dihydropyridazine-3-carboxamide]: the IC50 is < 100 nM.
The result for `Cn1c(C2(C(F)(F)F)CC2)nc2c(N3CC[C@@H](N)C3)c(NC(=O)c3ccc(=O)n(-c4c(F)cccc4F)n3)ccc21` [Example 146, (R)—N-(4-(3-aminopyrrolidin-1-yl)-1-methyl-2-(1-(trifluoromethyl)cyclopropyl)-1H-benzo[d]imidazol-5-yl)-1-(2,6-difluorophenyl)-6-oxo-1,6-dihydropyridazine-3-carboxamide] reads < 100 nM; that for `Cn1c(C2(C(F)(F)F)CC2)nc2c(N3C[C@H](N)C(C)(C)C3)c(NC(=O)c3ccc(=O)n(-c4c(F)cccc4F)n3)ccc21` [Example 147, (R)-N-(4-(4-amino-3,3-dimethylpyrrolidin-1-yl)-1-methyl-2-(1-(trifluoromethyl)cyclopropyl)-1H-benzo[d]imidazol-5-yl)-1-(2,6-difluorophenyl)-6-oxo-1,6-dihydropyridazine-3-carboxamide], < 100 nM; that for `C[C@@H]1CN(c2c(NC(=O)c3ccc(=O)n(-c4c(F)cccc4F)n3)ccc3c2nc(C2(C(F)(F)F)CC2)n3C)C[C@@H]1N` [Example 148, N-(4-((3R,4R)-3-amino-4-methylpyrrolidin-1-yl)-1-methyl-2-(1-(trifluoromethyl)cyclopropyl)-1H-benzo[d]imidazol-5-yl)-1-(2,6-difluorophenyl)-6-oxo-1,6-dihydropyridazine-3-carboxamide], < 100 nM.
On to `Cn1c(C2(C(F)(F)F)CC2)nc2c(N3C[C@H](N)C4(CC4)C3)c(NC(=O)c3ccc(=O)n(-c4c(F)cccc4F)n3)ccc21` [Example 149, (R)-N-(4-(7-amino-5-azaspiro[2.4]heptan-5-yl)-1-methyl-2-(1-(trifluoromethyl)cyclopropyl)-1H-benzo[d]imidazol-5-yl)-1-(2,6-difluorophenyl)-6-oxo-1,6-dihydropyridazine-3-carboxamide], for which the IC50 was < 100 nM.

Values taken from patent publication US20250122174A1 (Shenzhen Yuanli Shenwan Innovative Medicine Co., Ltd., priority 2022, published 2025).
